From ChEMBL document CHEMBL6103659, “Structural Studies of the Dopamine D4 Receptor Antagonist Sonepiprazole as an Inhibitor of Human Carbonic Anhydrases” (ACS Med Chem Lett, 2025)

Tests used:
Carbonic anhydrase 3 = Carbonic anhydrase 3 (Homo sapiens, UniProt P07451)
Carbonic anhydrase 7 = Carbonic anhydrase 7 (Homo sapiens, UniProt P43166)
Carbonic anhydrase 12 = Carbonic anhydrase 12 (Homo sapiens, UniProt O43570)
Carbonic anhydrase 2 = Carbonic anhydrase 2 (Homo sapiens, UniProt P00918)
Carbonic anhydrase 1 = Carbonic anhydrase 1 (Homo sapiens, UniProt P00915)
Carbonic anhydrase 1, sequence (P00915 whole entry): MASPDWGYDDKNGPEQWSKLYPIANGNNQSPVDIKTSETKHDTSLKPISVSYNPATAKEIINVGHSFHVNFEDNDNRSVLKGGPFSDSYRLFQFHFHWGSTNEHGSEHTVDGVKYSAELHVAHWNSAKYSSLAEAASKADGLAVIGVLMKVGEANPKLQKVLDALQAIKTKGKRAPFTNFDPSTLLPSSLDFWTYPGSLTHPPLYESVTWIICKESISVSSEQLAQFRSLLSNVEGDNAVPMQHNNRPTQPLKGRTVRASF

Carbonic anhydrase 9 = Carbonic anhydrase 9 (Homo sapiens, UniProt Q16790)

Carbonic anhydrase 3, sequence (P07451 whole entry): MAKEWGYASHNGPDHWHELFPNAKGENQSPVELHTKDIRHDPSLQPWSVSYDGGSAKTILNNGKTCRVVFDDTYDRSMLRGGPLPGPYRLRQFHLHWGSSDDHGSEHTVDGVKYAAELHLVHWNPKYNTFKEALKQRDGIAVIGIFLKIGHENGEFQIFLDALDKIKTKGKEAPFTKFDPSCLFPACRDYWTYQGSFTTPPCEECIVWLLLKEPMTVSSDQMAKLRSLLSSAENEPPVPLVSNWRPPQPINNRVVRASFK
Carbonic anhydrase 12, sequence (O43570 whole entry): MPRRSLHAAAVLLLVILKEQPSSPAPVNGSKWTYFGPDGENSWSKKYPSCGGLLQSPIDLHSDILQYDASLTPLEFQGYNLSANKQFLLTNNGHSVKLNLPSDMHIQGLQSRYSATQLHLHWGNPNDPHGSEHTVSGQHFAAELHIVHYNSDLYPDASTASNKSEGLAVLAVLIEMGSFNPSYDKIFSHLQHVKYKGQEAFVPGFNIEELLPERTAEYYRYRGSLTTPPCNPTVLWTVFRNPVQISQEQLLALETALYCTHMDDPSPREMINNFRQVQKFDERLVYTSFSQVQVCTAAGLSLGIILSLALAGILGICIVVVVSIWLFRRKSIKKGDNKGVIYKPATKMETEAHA
Carbonic anhydrase 7, sequence (P43166 whole entry): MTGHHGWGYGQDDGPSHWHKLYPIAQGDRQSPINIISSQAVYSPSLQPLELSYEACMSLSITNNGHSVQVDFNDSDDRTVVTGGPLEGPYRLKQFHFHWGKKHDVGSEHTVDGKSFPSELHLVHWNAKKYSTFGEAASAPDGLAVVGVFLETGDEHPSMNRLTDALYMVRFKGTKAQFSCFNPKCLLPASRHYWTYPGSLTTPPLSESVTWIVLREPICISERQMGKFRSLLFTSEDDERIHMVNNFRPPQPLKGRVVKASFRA

Row | Structure (SMILES) | Ki (Carbonic anhydrase 3) [nM] | Ki (Carbonic anhydrase 7) [nM] | Ki (Carbonic anhydrase 12) [nM] | Ki (Carbonic anhydrase 2) [nM] | Ki (Carbonic anhydrase 1) [nM] | Ki (Carbonic anhydrase 9) [nM]
1 | NS(=O)(=O)c1ccc(N2CCN(CC[C@@H]3OCCc4ccccc43)CC2)cc1 [SONEPIPRAZOLE] | > 10000 |  |  |  |  | 
2 | C=CCN1CCCC1CNC(=O)c1cc(S(N)(=O)=O)cc(OC)c1OC (configuration not stated) [VERALIPRIDE] | > 10000 | 978 | 23.9 | 406 | 2720 | 31.1
